Laboratory results taken from patent US20200131196A1 (Mount Tam Therapeutics, Inc., priority 2017, published 2020).

Columns and labels:
SHP-77 = assay: OncoPanel cell proliferation assay, SHP-77
Experimental: (§5) Cells were seeded into 384-well plates and incubated in a humidified atmosphere of 5% CO2 at 37° C. Compounds were added the day following cell seeding. At the same time, a time zero untreated cell plate was generated. After a 3-day incubation period, cells were fixed and stained to allow fluorescence imaging of nuclei. Compounds (1 mM stock solutions) were serially diluted in half-log steps from the highest test concentration (1 micromol), and assayed over 10 concentrations with a maximum assay concentration of 0.1% DMSO. Automated fluorescence microscopy was carried out using a Molecular Devices ImageXpress Micro XL high-content imager, and images were collected with a 4× objective. 16-bit TIFF images were acquired and analyzed with MetaXpress 5.1.0.41 software.

SK-N-AS = assay: OncoPanel cell proliferation assay, SK-N-AS; assay type: cell-based, human
Experimental: (§1) Cells were grown in RPMI 1640, 10% FBS, 2 mM L-alanyl-L-glutamine, 1 mM Na pyruvate, or a special medium. Cells were seeded into 384-well plates and incubated in a humidified atmosphere of 5% CO2 at 37° C. Compounds were added the day following cell seeding. At the same time, a time zero untreated cell plate was generated. After a 3-day incubation period, cells were fixed and stained to allow fluorescence imaging of nuclei. Compounds (1 mM stock solutions) were serially diluted in half-log steps from the highest test concentration ([…]), and assayed over 10 concentrations with a maximum assay concentration of 0.1% DMSO. Automated fluorescence microscopy was carried out using a Molecular Devices ImageXpress Micro XL high-content imager, and images were collected with a 4× objective. 16-bit TIFF images were acquired and analyzed with MetaXpress 5.1.0.41 software.
(§2) Cell proliferation was measured by the fluorescence intensity of an incorporated nuclear dye. The output is referred to as the relative cell count, where the measured nuclear intensity is transformed to percent of control (POC) using the following formula: […]
(§3) Cellular response parameters were calculated using nonlinear regression to a sigmoidal single-site dose response model:
(§4) EC50 is the test compound concentration at the curve inflection point or half the effective response (parameter C of the fitted curve solution). GI50 is the concentration needed to reduce the observed growth by half (midway between the curve maximum and the time zero value). “Cell Count Activity Area” is an estimate of the integrated area above the curve (Barretina, et al. The Cancer Cell Line Encyclopedia enables predictive modelling of anticancer drug sensitivity. Nature 483: 603-607). […] In rare instances, values <0 or >10 may be observed. […] Curve-fitting, calculations, and report generation was performed using a custom data reduction engine and MathIQ based software (AIM).

786-O = assay: OncoPanel cell proliferation assay, 786-O; assay type: cell-based, human; settings: 786-O
Experimental: as §1, §2, §3, §4

Hs 729 = assay: OncoPanel cell proliferation assay, Hs 729; assay type: cell-based, human
Experimental: as §1, §2, §3, §4

CML-T1 = assay: OncoPanel cell proliferation assay, CML-T1; assay type: cell-based, human
Experimental: as §1, §2, §3, §4

NCIH446 = assay: OncoPanel cell proliferation assay, NCIH446; assay type: cell-based, human
Experimental: as §1, §2, §3, §4

SCaBER = assay: OncoPanel cell proliferation assay, SCaBER; assay type: cell-based, human
Experimental: as §1, §2, §3, §4

OVCAR3 = assay: OncoPanel cell proliferation assay, OVCAR3
Experimental: as §5

ST486 = assay: OncoPanel cell proliferation assay, ST486; assay type: cell-based, human
Experimental: as §1, §2, §3, §4

T24 = assay: OncoPanel cell proliferation assay, T24; assay type: cell-based, human
Experimental: as §1, §2, §3, §4

SW684 = assay: OncoPanel cell proliferation assay, SW684; assay type: cell-based, human; settings: Homo sapiens, read-out: Cell Count GI50
Experimental: as §1, with “Cells” for “Cells were grown in RPMI 1640, 10% FBS, 2 mM L-alanyl-L-glutamine, 1 mM Na pyruvate, or a special medium. Cells”
as §2, §3
GI50 is the concentration needed to reduce the observed growth by half (midway between the curve maximum and the time zero value). […] In rare instances, values <0 or >10 may be observed. […] Curve-fitting, calculations, and report generation was performed using a custom data reduction engine and MathIQ based software (AIM).

CHP-212 = assay: OncoPanel cell proliferation assay, CHP-212
Experimental: as §5

[1] = Homo sapiens, read-out: Cell Count EC50
[2] = Homo sapiens, read-out: Cell Count GI50
[3] = Homo sapiens, read-out: Cell Count IC50

Compound `CN[C@@H]1C[C@H]2O[C@@](C)([C@@H]1OC)n1c3ccccc3c3c4c(c5c6ccccc6n2c5c31)C(=O)NC4` [Staurosporine, reference compound] has an EC50 (SHP-77; Homo sapiens, SHP77, read-out: Cell Count EC50) of 28.1 nM, a GI50 (SHP-77; Homo sapiens, SHP77, read-out: Cell Count GI50) of 24.2 nM and an IC50 (SHP-77; Homo sapiens, SHP77, read-out: Cell Count IC50) of 30.8 nM. For the same compound, the “Cell Count Activity Area” value (SHP-77; SHP-77) was 3.16, the “Cell Count Activity Area” value (SK-N-AS) was 4.83 and the EC50 (SK-N-AS; [1]) was 1.7 nM. The GI50 (SK-N-AS; [2]) was 1.27 nM, the “Cell Count Activity Area” value (786-O) was 4.87 and the EC50 (786-O; Homo sapiens, 786-0, read-out: Cell Count EC50) was 3.58 nM. The GI50 (786-O; Homo sapiens, 786-0, read-out: Cell Count GI50) was 3.41 nM, the “Cell Count Activity Area” value (Hs 729) was 4.06 and the GI50 (Hs 729; [2]) was 0.898 nM. For the same compound, the IC50 (Hs 729; [3]) was 7.04 nM, the “Cell Count Activity Area” value (CML-T1) was 4.13 and the EC50 (CML-T1; [1]) was 7.06 nM. The GI50 (CML-T1; [2]) was 6.96 nM, the “Cell Count Activity Area” value (NCIH446) was 2.81 and the EC50 (NCIH446; Homo sapiens, NCI-H446, read-out: Cell Count EC50) was 32.6 nM. The GI50 (NCIH446; Homo sapiens, NCI-H446, read-out: Cell Count GI50) was 16.8 nM, the “Cell Count Activity Area” value (SCaBER) was 6.03 and the GI50 (SCaBER; [2]) was 0.474 nM. For the same compound, the GI50 (OVCAR3; Homo sapiens, OVCAR-3, read-out: Cell Count GI50) was 6.11 nM, the “Cell Count Activity Area” value (OVCAR3; OVCAR3) was 3.41 and the “Cell Count Activity Area” value (ST486) was 4.89. For the same compound, the GI50 (ST486; [2]) was 2.83 nM, the IC50 (ST486; [3]) was 4.61 nM and the “Cell Count Activity Area” value (T24) was 5.96. The GI50 (T24; Homo sapiens, T-24, read-out: Cell Count GI50) was 0.829 nM, the GI50 (SW684) was 0.95 nM and the “Cell Count Activity Area” value (CHP-212; CHP-212) was 4.80. It also gave a GI50 (CHP-212; Homo sapiens, CHP-212, read-out: Cell Count GI50) of 2.59 nM and an IC50 (CHP-212; Homo sapiens, CHP-212, read-out: Cell Count IC50) of 4.78 nM.
